Test results published in patent US10131652B2, “Pyrimidinyloxy benzene derivatives as herbicides” (E. I. DU PONT DE NEMOURS AND COMPANY, priority 2014, dated 2018).

Tests used:
Format in all cases: in vivo
[1] = tested on: galium (catchweed bedstraw, Galium aparine); experiment: Test B postemergence plant response; settings: 0 to 100 scale, 0 no effect, 100 complete control
Method in brief: (§1)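 Visual injury ratings, 0 = no effect to 100 = complete control, versus untreated controls approximately 10 days after postemergence spraying in greenhouse. Plants were at one- to two-leaf stage, 2 to 10 cm tall, in loam soil/sand blend; a dash denotes no result.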

[2] = tested on: blackgrass (Alopecurus myosuroides); experiment: Test B postemergence plant response; settings: 0 to 100 scale, 0 no effect, 100 complete control
Method in brief: as §1

[3] = tested on: barnyardgrass (Echinochloa crus-galli); experiment: Test D pre-/postemergence plant response; settings: Preemergence; for Plant response rating, Barnyardgrass: scale 0 to 100 (0 no effect, 100 complete control)
Method in brief: (§2)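 Ratings were visual, 0 = no effect to 100 = complete control, taken against untreated controls after 13 to 15 days in a greenhouse. Chemicals, formulated in non-phytotoxic surfactant-containing solvent, went onto soil (loam/sand) at planting for preemergence, or onto 1- to 4-leaf plants (2–18 cm) for postemergence.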

[4] = tested on: morningglory (Ipomoea coccinea); experiment: Test D pre-/postemergence plant response; settings: Preemergence; for Plant response rating, Morningglory: scale 0 to 100 (0 no effect, 100 complete control)
Method in brief: as §2

soybean (Glycine max) = experiment: Test D pre-/postemergence plant response; settings: Preemergence; for Plant response rating, Soybean: scale 0 to 100 (0 no effect, 100 complete control)
Method in brief: as §2

corn (Zea mays) = experiment: Test D pre-/postemergence plant response; settings: Preemergence; for Plant response rating, Corn: scale 0 to 100 (0 no effect, 100 complete control)
Method in brief: as §2

[5] = tested on: giant foxtail (Setaria faberii); experiment: Test D pre-/postemergence plant response; settings: Preemergence; for Plant response rating, Foxtail, Giant: scale 0 to 100 (0 no effect, 100 complete control)
Method in brief: as §2

[6] = tested on: oilseed rape (Brassica napus); experiment: Test D pre-/postemergence plant response; settings: Preemergence; for Plant response rating, Oilseed Rape: scale 0 to 100 (0 no effect, 100 complete control)
Method in brief: as §2

[7] = tested on: Italian ryegrass (Lolium multiflorum); experiment: Test D pre-/postemergence plant response; settings: Preemergence; for Plant response rating, Ryegrass, Italian: scale 0 to 100 (0 no effect, 100 complete control)
Method in brief: as §2

[8] = tested on: waterhemp (common waterhemp, Amaranthus rudis); experiment: Test D pre-/postemergence plant response; settings: Preemergence; for Plant response rating, Waterhemp: scale 0 to 100 (0 no effect, 100 complete control)
Method in brief: as §2

[9] = tested on: yellow nutsedge (Cyperus esculentus); experiment: Test D pre-/postemergence plant response; settings: Preemergence; for Plant response rating, Nutsedge, Yellow: scale 0 to 100 (0 no effect, 100 complete control)
Method in brief: as §2

[10] = tested on: ragweed (common ragweed, Ambrosia elatior); experiment: Test D pre-/postemergence plant response; settings: Preemergence; for Plant response rating, Ragweed: scale 0 to 100 (0 no effect, 100 complete control)
Method in brief: as §2

[11] = tested on: pigweed (Amaranthus retroflexus); experiment: Test D pre-/postemergence plant response; settings: Preemergence; for Plant response rating, Pigweed: scale 0 to 100 (0 no effect, 100 complete control)
Method in brief: as §2

COc1cccc(Oc2ncc(Cl)cn2)c1-c1cc(C(F)(F)F)no1 [Compound 104]
Plant response rating, Galium ([1]; 31 g ai/ha, Postemergence): 90 | Plant response rating, Galium ([1]; 125 g ai/ha, postemergence): 100 | Plant response rating, Blackgrass ([2]; 31 g ai/ha, Postemergence): 70 | Plant response rating, Blackgrass ([2]; 125 g ai/ha, postemergence): 100 | Plant response rating (scale 0 to 100), Barnyardgrass ([3]; 62 g ai/ha): 25 | Plant response rating (scale 0 to 100), Barnyardgrass ([3]; 125 g ai/ha): 70 | Plant response rating, Barnyardgrass ([3]; 16 g ai/ha): 0 | Plant response rating, Barnyardgrass ([3]; 31 g ai/ha): 10 | Plant response rating (scale 0 to 100), Morningglory ([4]; 125 g ai/ha): 25 | Plant response rating, Morningglory ([4]; 16 g ai/ha): 5 | Plant response rating, Morningglory ([4]; 31 g ai/ha): 5 | Plant response rating, Morningglory ([4]; 62 g ai/ha): 25 | Plant response rating (scale 0 to 100), Soybean (soybean (Glycine max); 125 g ai/ha): 25 | Plant response rating, Soybean (soybean (Glycine max); 16 g ai/ha): 10 | Plant response rating, Soybean (soybean (Glycine max); 31 g ai/ha): 20 | Plant response rating, Soybean (soybean (Glycine max); 62 g ai/ha): 25 | Plant response rating (scale 0 to 100), Corn (corn (Zea mays); 125 g ai/ha): 0 | Plant response rating, Corn (corn (Zea mays); 16 g ai/ha): 0 | Plant response rating, Corn (corn (Zea mays); 31 g ai/ha): 0 | Plant response rating, Corn (corn (Zea mays); 62 g ai/ha): 0 | Plant response rating (scale 0 to 100), Foxtail, Giant ([5]; 125 g ai/ha): 100 | Plant response rating, Foxtail, Giant ([5]; 16 g ai/ha): 30 | Plant response rating, Foxtail, Giant ([5]; 31 g ai/ha): 80 | Plant response rating, Foxtail, Giant ([5]; 62 g ai/ha): 90 | Plant response rating (scale 0 to 100), Oilseed Rape ([6]; 125 g ai/ha): 50 | Plant response rating, Oilseed Rape ([6]; 16 g ai/ha): 0 | Plant response rating, Oilseed Rape ([6]; 31 g ai/ha): 0 | Plant response rating, Oilseed Rape ([6]; 62 g ai/ha): 30 | Plant response rating (scale 0 to 100), Ryegrass, Italian ([7]; 125 g ai/ha): 5 | Plant response rating, Ryegrass, Italian ([7]; 16 g ai/ha): 0 | Plant response rating, Ryegrass, Italian ([7]; 31 g ai/ha): 0 | Plant response rating, Ryegrass, Italian ([7]; 62 g ai/ha): 0 | Plant response rating (scale 0 to 100), Waterhemp ([8]; 125 g ai/ha): 100 | Plant response rating, Waterhemp ([8]; 16 g ai/ha): 100 | Plant response rating, Waterhemp ([8]; 31 g ai/ha): 100 | Plant response rating, Waterhemp ([8]; 62 g ai/ha): 100 | Plant response rating (scale 0 to 100), Nutsedge, Yellow ([9]; 125 g ai/ha): 0 | Plant response rating, Nutsedge, Yellow ([9]; 16 g ai/ha): 0 | Plant response rating, Nutsedge, Yellow ([9]; 31 g ai/ha): 0 | Plant response rating, Nutsedge, Yellow ([9]; 62 g ai/ha): 0 | Plant response rating (scale 0 to 100), Ragweed ([10]; 125 g ai/ha): 60 | Plant response rating, Ragweed ([10]; 16 g ai/ha): 40 | Plant response rating, Ragweed ([10]; 31 g ai/ha): 25 | Plant response rating, Ragweed ([10]; 62 g ai/ha): 55 | Plant response rating (scale 0 to 100), Pigweed ([11]; 125 g ai/ha): 100 | Plant response rating, Pigweed ([11]; 16 g ai/ha): 100 | Plant response rating, Pigweed ([11]; 31 g ai/ha): 100 | Plant response rating, Pigweed ([11]; 62 g ai/ha): 100
